Data as given in patent US11377473B2, “Albumin-binding prodrugs of auristatin E derivatives” (priority 2017, dated 2022).
Read-outs that look alike come from different tables or passages of the source.

Legend:
[1] = tested on: panel of 6 selected human cancer cell lines (LXFL 1674L, SW-620, CAL-27, RKO, MDA-MB-468, SK-OV-3); assay: IC50 determination in a panel of tumor cell lines (CellTiter-Blue Cell Viability assay); type: cell-based
Protocol: Samples were provided to Charles River Discovery Research Services Germany GmbH as frozen stock solutions in pharmaceutical grade DMSO (Sigma-Aldrich, Taufkirchen, Germany). On each day of the experiment, a frozen aliquot of stock solution was thawed. Subsequent serial dilutions were realized with complete RPMI 1640 cell culture medium using an intermediate dilution plate. 10 μL taken from the intermediate dilution plate were then transferred to 140 μL/well of the cell culture plate. Cells were treated with the test compounds at 10 concentrations in triplicate in half-log steps from 0.003 nM to 100 nM for a period of 96 h.
The compounds were tested in a panel of 6 selected human cancer cell lines by using CellTiter-Blue® Cell Viability assay (Promega, Mannheim, Germany). IC values are reported as absolute IC50 values, obtained for a test compound as the geometric mean of IC50 values over all cell lines tested.
The cell lines used were LXFL 1674L (established from patient-derived xenograft at Charles River Discovery Research Services Germany GmbH), SW-620 (kindly provided by the NCI, Bethesda, Md., USA), CAL-27 (purchased from DSMZ, Deutsche Sammlung von Mikroorganismen und Zellkulturen, Braunschweig, Germany), RKO, MDA-MB-468, and SK-OV-3 (from ATCC, American Type Culture Collection, Rockville, Md., USA). Authenticity of all cell lines was proven at the DSMZ by STR (short tandem repeat) analysis, a PCR based DNA-fingerprinting methodology. Cell lines were routinely passaged once or twice weekly and maintained in culture for up to 20 passages. Cells were grown at 37° C. in a humidified atmosphere with 5% CO2 in RPMI 1640 medium (25 mM HEPES, with L-glutamine, Biochrom, Berlin, Germany) supplemented with 10% (v/v) fetal calf serum (Sigma-Aldrich, Taufkirchen, Germany) and 0.1 mg/mL gentamicin (Life Technologies, Karlsruhe, Germany). The CellTiter-Blue® Cell Viability Assay was used according to manufacturer's instructions. Briefly, cells were harvested from exponential phase cultures, counted and plated in 96-well flat-bottom microtiter plates at a cell density of 4,000-10,000 cells/well depending on the cell line's growth rate. After a 24 h recovery period to allow the cells to resume exponential growth, 10 μL of culture medium (six control wells/plate) or of culture medium with test compound were added. The compounds were applied at 10 concentrations in triplicate in half-log increments up to 100 nM and cells were treated continuously for 96 h. […] Following an incubation period of up to 4 h, fluorescence (FU) was measured by using the Enspire Multimode Plate Reader (excitation λ=531 nm, emission λ=615 nm). IC50 values were determined with GraphPad Prism bioanalytic software (San Diego, Calif., USA).

[2] = pH-dependent release of free drug from human serum albumin conjugates; type: physicochemical; conditions: upon changing the pH from 7.4 to 4.1, 37° C., up to 24 hours
Protocol: The albumin-binding auristatin-Sulf07 derivatives were prepared as 2 mM stock solutions in anhydrous DMSO.
Release at pH 7.4: 442.4 μL of 1000 μM of reduced human serum albumin (881 μM free cysteine-34) and 727.6 μL PBS Buffer (4 mM sodium phosphate pH 7.4 and 150 mM NaCl) were added to a sealed HPLC vial and incubated at 37° C. for 30 minutes. After 30 minutes incubation 130 μL of the appropriate DMSO drug stock solution was added to the pre-incubated vial to produce a 200 μM solution of auristatin drug and a 300 μM solution of albumin (free cysteine-34). The mixture was allowed to react for 10 minutes at 37° C. and then analyzed by HPLC (method 7, 20 μL injection). Injections were repeated after 1 hour and then every hour up to 24 hours.
Release at pH 4.1: 408.5 μL of 1000 μM of reduced human serum albumin (881 μM free cysteine-34) and 539.4 μL of water were added to a sealed HPLC vial and incubated at 37° C. for 30 minutes. In a separate vial 190 μL sodium acetate buffer 50 mM pH 3.0 and 24.7 μL 1 M HCl were incubated at 37° C. for 30 minutes. […] The resulting solution was analyzed directly by HPLC (method 7). […]
The percentage of released free drug was determined by HPLC with a calibration curve (200 μM, 100 μM, 50 μM, 25 μM and 12.5 μM) for the free drugs i.e. AE-Keto for AE-Keto-Sulf07 and AE-Ester for AE-Ester-Sulf07. […]

[3] = Reconstitution stability (maleimide hydrolysis, loss of API) in reconstitution buffer; type: physicochemical; conditions: after 4 hours incubation at room temperature in reconstitution buffer (50 mM sodium phosphate pH 7.65 containing 4% HPβCD and 5% sucrose)
Protocol: (§1) The albumin-binding AE-Keto drug derivatives were reconstituted in 50 mM sodium phosphate buffer pH 7.6 which contained 5% sucrose (w/v) and 2% 2-hydroxypropyl-β-cyclodextrin (2-HPβCD). Both drugs were reconstituted at a concentration of 1277 μM (equal to 4.5 mg/kg murine xenograft dose), the dissolution of both drugs was confirmed by HPLC (method 2, 254 nm). Stability of the reconstituted drugs was monitored by HPLC at room temperature every 15 minutes over a period of 240 minutes for maleimide hydrolysis and loss of API.
as §1, with “AE-Ester” for “AE-Keto drug”, “4% 2-HPβCD.” for “2% 2-hydroxypropyl-β-cyclodextrin (2-HPβCD).”, “655” for “1277”, “2.4” for “4.5”, “310” for “254”

[4] = Homo sapiens, 96 h, read-out: Geometric mean IC50, geometric mean over six cell lines, 96 h treatment

| SMILES | IC50 [1, 4] [nM] | percent of free drug released from albumin conjugate [2] | IC50 ([1]; read-out: Geometric mean IC50, geometric mean over six cell lines, 96 h treatment) [nM] | maleimide hydrolyzed [3] [%] |
| --- | --- | --- | --- | --- |
| CC[C@H](C)[C@@H]([C@@H](CC(=O)N1CCC[C@H]1[C@H](OC)[C@@H](C)C(=O)N[C@H](C)C(=O)c1ccccc1)OC)N(C)C(=O)[C@@H](NC(=O)[C@H](C(C)C)N(C)C)C(C)C [AE-Keto, (S)-1-(((S)-1-(((3R,4S,5S)-3-methoxy-1-((S)-2-((1R,2R)-1-methoxy-2-methyl-3-oxo-3-(((R)-1-oxo-1-phenylpropan-2-yl)amino)propyl)pyrrolidin-1-yl)-5-methyl-1-oxoheptan-4-yl)(methyl)amino)-3-methyl-1-oxobutan-2-yl)amino)-N,N,3-trimethyl-1-oxobutan-2-aminium 2,2,2-trifluoroacetate] | 0.259 |  |  |  |
| CC[C@H](C)[C@@H]([C@@H](CC(=O)N1CCC[C@H]1[C@H](OC)[C@@H](C)C(=O)N[C@H](C)[C@@H](OC(=O)c1ccc(C(C)=O)cc1)c1ccccc1)OC)N(C)C(=O)[C@@H](NC(=O)[C@H](C(C)C)N(C)C)C(C)C (stereo in doubt) [AE-Ester, (1S,2R)-2-((3R)-3-((S)-1-((3R,4S,5R)-4-((S)-2-((S)-2-(dimethylamino)-3-methylbutanamido)-N,3-dimethylbutanamido)-3-methoxy-5-methylheptanoyl)pyrrolidin-2-yl)-3-methoxy-2-methylpropanamido)-1-phenylpropyl 4-acetylbenzoate] | 0.339 | higher than the percent of AE-Keto released | 0.399 ± 0.00019 |  |
| CC[C@H](C)[C@@H]([C@@H](CC(=O)N1CCC[C@H]1[C@H](OC)[C@@H](C)C(=O)N[C@H](C)C(=NNC(=O)CCCCCN1C(=O)C=CC1=O)c1ccccc1)OC)N(C)C(=O)[C@@H](NC(=O)[C@H](C(C)C)N(C)C)C(C)C [AE-Keto-EMCH, reference compound] |  |  |  | 5.4 |
| CC[C@H](C)[C@@H]([C@@H](CC(=O)N1CCC[C@H]1[C@H](OC)[C@@H](C)C(=O)N[C@H](C)[C@@H](OC(=O)c1ccc(C(C)=NNC(=O)CCCCCN2C(=O)C=CC2=O)cc1)c1ccccc1)OC)N(C)C(=O)[C@@H](NC(=O)[C@H](C(C)C)N(C)C)C(C)C [AE-Ester-EMCH, reference compound] |  |  |  | 11.0 |
